Measured values: PubChem BioAssay (NCI)
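1) Cells in 96-well plates. 2) Compound, 48 h, 5 concentrations. 3) Linear interpolation between surrounding doses. 4) Unreached endpoint = highest concentration. At the GI50, growth is halved. At the TGI there is no net growth.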

How the values were obtained:
Assay in all cases: inhibition of tumour cell growth, NCI panel, 48 h
MDA-MB-435 = system: MDA-MB-435
NCI-H522 lung = system: NCI-H522 lung
K-562 leukemia = system: K-562 leukemia
SK-MEL-2 melanoma = system: SK-MEL-2 melanoma
MALME-3M melanoma = system: MALME-3M melanoma
OVCAR-8 ovarian = system: OVCAR-8 ovarian
HOP-62 NSCLC = system: HOP-62 NSCLC
IGROV1 ovarian = system: IGROV1 ovarian
TK-10 renal = system: TK-10 renal
OVCAR-3 ovarian = system: OVCAR-3 ovarian
T-47D breast = system: T-47D breast
SNB-19 CNS = system: SNB-19 CNS
SK-MEL-28 melanoma = system: SK-MEL-28 melanoma
MDA-MB-231 breast = system: MDA-MB-231 breast
NCI-H23 lung = system: NCI-H23 lung
OVCAR-5 ovarian = system: OVCAR-5 ovarian
HOP-92 NSCLC = system: HOP-92 NSCLC
A549 NSCLC = system: A549 NSCLC
ACHN renal = system: ACHN renal
HCC-2998 colon = system: HCC-2998 colon
DU-145 prostate = system: DU-145 prostate
HS 578T breast = system: HS 578T breast
LOX IMVI melanoma = system: LOX IMVI melanoma
HL-60(TB) leukemia = system: HL-60(TB) leukemia
SNB-75 CNS = system: SNB-75 CNS
EKVX NSCLC = system: EKVX NSCLC
CCRF-CEM leukemia = system: CCRF-CEM leukemia
UO-31 renal = system: UO-31 renal
COLO 205 colon = system: COLO 205 colon
RXF 393 renal = system: RXF 393 renal
OVCAR-4 ovarian = system: OVCAR-4 ovarian
BT-549 breast = system: BT-549 breast
HCT-116 colon = system: HCT-116 colon
NCI-H226 lung = system: NCI-H226 lung
A498 renal = system: A498 renal
SF-268 CNS = system: SF-268 CNS
MCF7 breast = system: MCF7 breast
SN12C renal = system: SN12C renal
U251 CNS = system: U251 CNS
HCT-15 colon = system: HCT-15 colon
786-0 renal = system: 786-0 renal
SK-OV-3 ovarian = system: SK-OV-3 ovarian
SF-539 CNS = system: SF-539 CNS
PC-3 prostate = system: PC-3 prostate
RPMI-8226 leukemia = system: RPMI-8226 leukemia
NCI/ADR-RES ovarian = system: NCI/ADR-RES ovarian
KM12 colon = system: KM12 colon
NCI-H460 lung = system: NCI-H460 lung
UACC-257 melanoma = system: UACC-257 melanoma
MOLT-4 leukemia = system: MOLT-4 leukemia
CAKI-1 renal = system: CAKI-1 renal
UACC-62 melanoma = system: UACC-62 melanoma
M14 melanoma = system: M14 melanoma
HT29 colon = system: HT29 colon
SF-295 CNS = system: SF-295 CNS
SW-620 colon = system: SW-620 colon

COc1ccc(-c2nc(S(=O)(=O)c3ccccc3)c(S(=O)CC(=O)N3CCC(C)CC3)o2)cc1 (configuration not stated)
GI50 (MDA-MB-435): 2.55 µM | TGI (MDA-MB-435): 6.56 µM | GI50 (NCI-H522 lung): 1.44 µM | TGI (NCI-H522 lung): 3.39 µM | GI50 (K-562 leukemia): 0.198 µM | TGI (K-562 leukemia): 3.03 µM | GI50 (SK-MEL-2 melanoma): 3.19 µM | TGI (SK-MEL-2 melanoma): 9.83 µM | GI50 (MALME-3M melanoma): 1.94 µM | TGI (MALME-3M melanoma): 3.67 µM | GI50 (OVCAR-8 ovarian): 2.44 µM | TGI (OVCAR-8 ovarian): 6.59 µM | GI50 (HOP-62 NSCLC): 8.12 µM | TGI (HOP-62 NSCLC): 21 µM | GI50 (IGROV1 ovarian): 2.17 µM | TGI (IGROV1 ovarian): 6.27 µM | GI50 (TK-10 renal): 1.91 µM | TGI (TK-10 renal): 3.85 µM | GI50 (OVCAR-3 ovarian): 1.33 µM | TGI (OVCAR-3 ovarian): 2.74 µM | GI50 (T-47D breast): 1.71 µM | TGI (T-47D breast): 4.09 µM | GI50 (SNB-19 CNS): 6.43 µM | TGI (SNB-19 CNS): 19.1 µM | GI50 (SK-MEL-28 melanoma): 2.15 µM | TGI (SK-MEL-28 melanoma): 4.36 µM | GI50 (MDA-MB-231 breast): 1.91 µM | TGI (MDA-MB-231 breast): 4.08 µM | GI50 (NCI-H23 lung): 3.12 µM | TGI (NCI-H23 lung): 12.1 µM | GI50 (OVCAR-5 ovarian): 2.99 µM | TGI (OVCAR-5 ovarian): 8.58 µM | GI50 (HOP-92 NSCLC): 1.62 µM | TGI (HOP-92 NSCLC): 3.63 µM | GI50 (A549 NSCLC): 7.59 µM | TGI (A549 NSCLC): 21.1 µM | GI50 (ACHN renal): 1.68 µM | TGI (ACHN renal): 3.13 µM | GI50 (HCC-2998 colon): 14 µM | TGI (HCC-2998 colon): 28.8 µM | GI50 (DU-145 prostate): 1.37 µM | TGI (DU-145 prostate): 2.72 µM | GI50 (HS 578T breast): 5.86 µM | TGI (HS 578T breast): 27 µM | GI50 (LOX IMVI melanoma): 1.72 µM | TGI (LOX IMVI melanoma): 3.25 µM | GI50 (HL-60(TB) leukemia): 1.61 µM | TGI (HL-60(TB) leukemia): 8.35 µM | GI50 (SNB-75 CNS): 4.16 µM | TGI (SNB-75 CNS): 15.2 µM | GI50 (EKVX NSCLC): 3.69 µM | TGI (EKVX NSCLC): 13.7 µM | GI50 (CCRF-CEM leukemia): 2.82 µM | TGI (CCRF-CEM leukemia): 8.63 µM | GI50 (UO-31 renal): 1.26 µM | TGI (UO-31 renal): 2.57 µM | GI50 (COLO 205 colon): 2.04 µM | TGI (COLO 205 colon): 3.86 µM | GI50 (RXF 393 renal): 1.68 µM | TGI (RXF 393 renal): 3.25 µM | GI50 (OVCAR-4 ovarian): 3.31 µM | TGI (OVCAR-4 ovarian): 13 µM | GI50 (BT-549 breast): 1.73 µM | TGI (BT-549 breast): 3.77 µM | GI50 (HCT-116 colon): 1.72 µM | TGI (HCT-116 colon): 3.2 µM | GI50 (NCI-H226 lung): 2.37 µM | TGI (NCI-H226 lung): 6.25 µM | GI50 (A498 renal): 2.46 µM | TGI (A498 renal): 9.79 µM | GI50 (SF-268 CNS): 3.78 µM | TGI (SF-268 CNS): 14.9 µM | GI50 (MCF7 breast): 1.45 µM | TGI (MCF7 breast): 3.44 µM | GI50 (SN12C renal): 1.9 µM | TGI (SN12C renal): 3.6 µM | GI50 (U251 CNS): 3.06 µM | TGI (U251 CNS): 10.6 µM | GI50 (HCT-15 colon): 1.27 µM | TGI (HCT-15 colon): 2.86 µM | GI50 (786-0 renal): 1.92 µM | TGI (786-0 renal): 4.05 µM | GI50 (SK-OV-3 ovarian): 12.9 µM | TGI (SK-OV-3 ovarian): 26.5 µM | GI50 (SF-539 CNS): 1.8 µM | TGI (SF-539 CNS): 3.52 µM | GI50 (PC-3 prostate): 3.55 µM | TGI (PC-3 prostate): 15.7 µM | GI50 (RPMI-8226 leukemia): 1.25 µM | TGI (RPMI-8226 leukemia): 4.02 µM | GI50 (NCI/ADR-RES ovarian): 3.1 µM | TGI (NCI/ADR-RES ovarian): 12 µM | GI50 (KM12 colon): 4.72 µM | TGI (KM12 colon): 16.7 µM | GI50 (NCI-H460 lung): 5.95 µM | TGI (NCI-H460 lung): 20.6 µM | GI50 (UACC-257 melanoma): 2.1 µM | TGI (UACC-257 melanoma): 5.05 µM | GI50 (MOLT-4 leukemia): 2.09 µM | TGI (MOLT-4 leukemia): 5.71 µM | GI50 (CAKI-1 renal): 2.28 µM | TGI (CAKI-1 renal): 6.7 µM | GI50 (UACC-62 melanoma): 1.67 µM | TGI (UACC-62 melanoma): 3.6 µM | GI50 (M14 melanoma): 1.89 µM | TGI (M14 melanoma): 4.21 µM | GI50 (HT29 colon): 2.58 µM | TGI (HT29 colon): 10.1 µM | GI50 (SF-295 CNS): 6.44 µM | TGI (SF-295 CNS): 19.4 µM | GI50 (SW-620 colon): 1.73 µM | TGI (SW-620 colon): 4.36 µM
